Results on 18 molecules are retold here after US8846699B2, “Quinazoline derivatives as a multiplex inhibitor and method for the preparation thereof” (Hanmi Pharm. Co., Ltd., priority 2005, dated 2014).

For experiment [1], the system named is Human Umbilical Vein Endothelial Cell (HUVEC). Put plainly: Inhibitory effect on growth of human umbilical vein endothelial cell (HUVEC), MTS. The settings on record: 10 ng/ml VEGF, absorbance 490 nm. Format: cell-based.
In experiment [2] the test system is colon and rectal cancer cell line, SW-620. Put plainly: Inhibitory effect on growth of cancer cell line SW-620, SRB. Format: cell-based. Conditions: not having overexpressed EGFR and EGFR2. A digest of the protocol:
(§1)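 Cells were cultured in DMEM with 10% FBS. Compounds were applied at 10 μM with 10-fold serial dilution to 10^−4, DMSO <1%, for 72 h at 37 °C. Cells were then TCA-fixed and stained with 0.4% SRB, and absorbance was read at 570 nm after solubilisation in 10 mM Tris base.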

Experiment [3] concerns breast cancer cell line, SK-Br3. The experiment can be described thus: Inhibitory effect on growth of cancer cell line SK-Br3, SRB. It is filed as cell-based. The settings on record: overexpressed EGFR2 (HER-2). The method, boiled down: as §1
The target in experiment [4] is EGFR1 (HER-1) (Homo sapiens (Human), UniProt P00533). The experiment can be described thus: EGFR1 (HER-1) enzyme assay, fluorescence polarization. It is filed as biochemical. The settings on record: 100 μM ATP, poly(Glu, Tyr) substrate. (In general: Fluorescence polarisation rises when a labelled molecule tumbles more slowly, as on binding a larger partner.)
Experiment [5] concerns skin cancer cell line, A431. The experiment can be described thus: Inhibitory effect on growth of cancer cell line A431, SRB. Format: cell-based. The settings on record: overexpressed EGFR1 (HER-1). A digest of the protocol: as §1
In experiment [6] the target is VEGFR2 (KDR) (Homo sapiens (Human), UniProt P35968). The experiment can be described thus: VEGFR2 (KDR) enzyme assay, fluorescence polarization. Format: biochemical. Conditions: 5 μM ATP, poly(Glu, Tyr) substrate. The method, boiled down:
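Autophosphorylation read by fluorescence polarization: VEGFR2 (Proquinase) at 200 ng/10 μl with 5 μM ATP and 10 ng/ml poly(Glu,Tyr) 4:1, in 20 mM HEPES pH 7.4, 5 mM MgCl2, 2 mM MnCl2, 50 μM Na3VO4. Reaction 1 h at room temperature, EDTA stop, then anti-phosphotyrosine antibody/tracer for 30 min in the dark.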

As a reminder, the IC50 is the concentration that gives 50% inhibition.

Chain of VEGFR2 (KDR) (P35968 20-1356): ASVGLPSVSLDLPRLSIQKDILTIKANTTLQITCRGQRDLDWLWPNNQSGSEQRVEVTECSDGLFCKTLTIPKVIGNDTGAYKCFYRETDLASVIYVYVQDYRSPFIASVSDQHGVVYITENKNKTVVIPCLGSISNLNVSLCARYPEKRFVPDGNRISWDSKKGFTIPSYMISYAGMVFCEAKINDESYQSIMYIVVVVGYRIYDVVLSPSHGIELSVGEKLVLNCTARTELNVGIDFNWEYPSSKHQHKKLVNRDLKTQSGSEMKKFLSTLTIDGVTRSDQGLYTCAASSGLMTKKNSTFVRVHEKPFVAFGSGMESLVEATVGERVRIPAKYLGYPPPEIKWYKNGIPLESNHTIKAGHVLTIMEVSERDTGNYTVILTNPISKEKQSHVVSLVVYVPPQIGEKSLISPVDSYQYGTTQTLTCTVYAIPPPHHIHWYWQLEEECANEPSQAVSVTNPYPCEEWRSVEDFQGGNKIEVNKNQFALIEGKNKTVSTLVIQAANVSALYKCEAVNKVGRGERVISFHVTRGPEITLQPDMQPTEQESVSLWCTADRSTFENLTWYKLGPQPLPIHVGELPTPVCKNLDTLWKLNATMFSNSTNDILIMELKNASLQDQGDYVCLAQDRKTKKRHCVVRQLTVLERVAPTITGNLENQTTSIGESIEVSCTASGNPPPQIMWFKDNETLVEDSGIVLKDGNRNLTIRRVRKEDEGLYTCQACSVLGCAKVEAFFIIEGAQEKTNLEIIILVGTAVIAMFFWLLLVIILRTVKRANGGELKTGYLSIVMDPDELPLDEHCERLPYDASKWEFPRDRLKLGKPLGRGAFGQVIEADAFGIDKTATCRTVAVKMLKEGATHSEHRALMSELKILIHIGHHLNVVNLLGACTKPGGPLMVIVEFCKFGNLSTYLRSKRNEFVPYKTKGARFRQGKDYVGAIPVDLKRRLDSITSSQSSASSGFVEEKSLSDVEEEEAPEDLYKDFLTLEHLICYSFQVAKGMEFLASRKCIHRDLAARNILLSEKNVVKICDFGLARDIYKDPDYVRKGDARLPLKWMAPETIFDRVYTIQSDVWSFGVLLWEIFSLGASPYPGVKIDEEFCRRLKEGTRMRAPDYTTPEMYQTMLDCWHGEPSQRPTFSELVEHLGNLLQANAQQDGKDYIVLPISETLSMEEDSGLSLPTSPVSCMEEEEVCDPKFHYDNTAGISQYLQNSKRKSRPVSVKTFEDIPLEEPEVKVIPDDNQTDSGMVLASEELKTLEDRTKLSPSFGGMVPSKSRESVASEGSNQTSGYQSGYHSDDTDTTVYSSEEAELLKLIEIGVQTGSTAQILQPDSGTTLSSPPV

With `C=CC(=O)Nc1cc2c(Nc3ccc(Br)c(F)c3F)ncnc2cc1OCCNC(=O)CN(C)C` [Example 124, N-{4-(4-bromo-2,3-difluoro-phenylamino)-7-[2-(2-dimethylamino-acetylamino)-ethoxy]-quinazolin-6-yl}-acrylamide], the IC50 was 268 nM in experiment [1] (Homo sapiens, 96 h); 2680 nM in experiment [2] (Homo sapiens, 72 h); 60 nM in experiment [3] (Homo sapiens, SK-BR-3, 72 h); 18 nM in experiment [4]; 19 nM in experiment [5] (Homo sapiens, A-431, 72 h); 136 nM in experiment [6].
For `C=CC(=O)Nc1cc2c(Nc3cc(Cl)c(Cl)cc3F)ncnc2cc1OCCNC(C)=O` [Example 121, N-[7-(2-acetylamino-ethoxy)-4-(4,5-dichloro-2-fluoro-phenylamino)-quinazolin-6-yl]-acrylamide], the IC50 in experiment [1] (Homo sapiens, 96 h) was found to be 383 nM; in experiment [2] (Homo sapiens, 72 h), 10000 nM; in experiment [3] (Homo sapiens, SK-BR-3, 72 h), 22 nM; in experiment [4], 5 nM; in experiment [5] (Homo sapiens, A-431, 72 h), 7 nM; in experiment [6], 153 nM.
For the molecule `C=CC(=O)Nc1cc2c(Nc3ccc(Br)cc3F)ncnc2cc1OCCCNC(=O)C(F)(F)F` [Example 14, N-{4-(4-bromo-2-fluoro-phenylamino)-7-[3-(2,2,2-trifluoro-acetylamino)-propoxy]-quinazolin-6-yl}-acrylamide], the IC50 came out at 286 nM in experiment [1] (Homo sapiens, 96 h); 10000 nM in experiment [2] (Homo sapiens, 72 h); 57 nM in experiment [3] (Homo sapiens, SK-BR-3, 72 h); 59 nM in experiment [4]; 97 nM in experiment [5] (Homo sapiens, A-431, 72 h); 591 nM in experiment [6].
For `C=CC(=O)Nc1cc2c(Nc3ccc(Br)c(Cl)c3F)ncnc2cc1OCCNC(=O)CN(CC)CC` [Example 151, N-{4-(4-bromo-3-chloro-2-fluoro-phenylamino)-7-[2-(2-diethylamino-acetylamino)-ethoxy]-quinazolin-6-yl}-acrylamide], the IC50 in experiment [1] (Homo sapiens, 96 h) was 351 nM; in experiment [2] (Homo sapiens, 72 h), 9520 nM; in experiment [3] (Homo sapiens, SK-BR-3, 72 h), 153 nM; in experiment [4], 58 nM; in experiment [5] (Homo sapiens, A-431, 72 h), 68 nM; in experiment [6] it was 309 nM.
For `C=CC(=O)Nc1cc2c(Nc3ccc(Br)cc3F)ncnc2cc1OC(C)CNC(C)=O` (stereo not drawn) [Example 80, N-[7-(2-acetylamino-1-methyl-ethoxy)-4-(4-bromo-2-fluoro-phenylamino)-quinazolin-6-yl]-acrylamide], the IC50 came to 109 nM in experiment [1] (Homo sapiens, 96 h); 10000 nM in experiment [2] (Homo sapiens, 72 h); 211 nM in experiment [3] (Homo sapiens, SK-BR-3, 72 h); 36 nM in experiment [4]; 41 nM in experiment [5] (Homo sapiens, A-431, 72 h); 77 nM in experiment [6].
As to `C=CC(=O)Nc1cc2c(Nc3cc(F)c(Br)cc3F)ncnc2cc1OCCNC(C)=O` [Example 119, N-[7-(2-acetylamino-ethoxy)-4-(4-bromo-2,5-difluoro-phenylamino)-quinazolin-6-yl]-acrylamide], the IC50 in experiment [1] (Homo sapiens, 96 h) was determined as 921 nM; in experiment [2] (Homo sapiens, 72 h), 2890 nM; in experiment [3] (Homo sapiens, SK-BR-3, 72 h) it was 178 nM; in experiment [4], 12 nM; in experiment [5] (Homo sapiens, A-431, 72 h), 14 nM; in experiment [6], 782 nM.
With `C=CC(=O)Nc1cc2c(Nc3ccc(Br)cc3F)ncnc2cc1OCC1CCN(C(=O)CS(C)(=O)=O)CC1` [Example 3, N-{4-(4-bromo-2-fluoro-phenylamino)-7-[1-(2-methanesulfonyl-acetyl)-piperidin-4-ylmethoxy]-quinazolin-6-yl}-acrylamide], the IC50 is 90 nM in experiment [1] (Homo sapiens, 96 h); 6310 nM in experiment [2] (Homo sapiens, 72 h); 216 nM in experiment [3] (Homo sapiens, SK-BR-3, 72 h); 26 nM in experiment [4]; 48 nM in experiment [5] (Homo sapiens, A-431, 72 h); 108 nM in experiment [6].
Take `C=CC(=O)Nc1cc2c(Nc3cc(OC)c(Cl)cc3OC)ncnc2cc1OCCNC(C)=O` [Example 172, N-[7-(2-acetylamino-ethoxy)-4-(4-chloro-2,5-dimethoxy-phenylamino)-quinazolin-6-yl]-acrylamide]: the IC50 in experiment [1] (Homo sapiens, 96 h) was determined as 125 nM; in experiment [2] (Homo sapiens, 72 h), 10000 nM; in experiment [3] (Homo sapiens, SK-BR-3, 72 h) it was 3300 nM; in experiment [4], 87 nM; in experiment [5] (Homo sapiens, A-431, 72 h), 91 nM; in experiment [6], 90 nM.
Regarding `C=CC(=O)Nc1cc2c(Nc3ccc(Cl)cc3F)ncnc2cc1OCCNC(=O)CN(C)C` [Example 116, N-{4-(4-chloro-2-fluoro-phenylamino)-7-[2-(2-dimethylamino-acetylamino)-ethoxy]-quinazolin-6-yl}-acrylamide], the IC50 in experiment [1] (Homo sapiens, 96 h) turned out to be 951 nM; in experiment [2] (Homo sapiens, 72 h), 2960 nM; in experiment [3] (Homo sapiens, SK-BR-3, 72 h), 253 nM; in experiment [4], 419 nM; in experiment [5] (Homo sapiens, A-431, 72 h), 437 nM; in experiment [6], 758 nM.
Regarding `C=CC(=O)Nc1cc2c(Nc3ccc(Br)cc3F)ncnc2cc1OCC1=NCCO1` [Example 109, N-[4-(4-bromo-2-fluoro-phenylamino)-7-(4,5-dihydro-oxazol-2-ylmethoxy)-quinazolin-6-yl]-acrylamide], the IC50 in experiment [1] (Homo sapiens, 96 h) was 486 nM; in experiment [2] (Homo sapiens, 72 h), 10000 nM; in experiment [3] (Homo sapiens, SK-BR-3, 72 h), 572 nM; in experiment [4], 125 nM; in experiment [5] (Homo sapiens, A-431, 72 h), 147 nM; in experiment [6], 478 nM.
Take `C=CC(=O)Nc1cc2c(Nc3cc(Cl)c(Cl)cc3F)ncnc2cc1OCCN(C)C` [Example 136, N-[4-(4,5-dichloro-2-fluoro-phenylamino)-7-(2-dimethylamino-ethoxy)-quinazolin-6-yl]-acrylamide]: the IC50 turned out to be 923 nM in experiment [1] (Homo sapiens, 96 h); 2940 nM in experiment [2] (Homo sapiens, 72 h); 181 nM in experiment [3] (Homo sapiens, SK-BR-3, 72 h); 321 nM in experiment [4]; 343 nM in experiment [5] (Homo sapiens, A-431, 72 h); 856 nM in experiment [6].
`C=CC(=O)Nc1cc2c(Nc3ccc(Br)c(Cl)c3F)ncnc2cc1OCCNC(=O)CCOC` [Example 150, N-{4-(4-bromo-3-chloro-2-fluoro-phenylamino)-7-[2-(3-methoxy-propionylamino)-ethoxy]-quinazolin-6-yl}-acrylamide]: the IC50 in experiment [1] (Homo sapiens, 96 h) stood at 358 nM; in experiment [2] (Homo sapiens, 72 h), 9530 nM; in experiment [3] (Homo sapiens, SK-BR-3, 72 h), 242 nM; in experiment [4], 21 nM; in experiment [5] (Homo sapiens, A-431, 72 h), 22 nM; in experiment [6], 278 nM.
As for `C=CC(=O)Nc1cc2c(Nc3ccc(Br)cc3F)ncnc2cc1OCCNC(=O)N1CCNCC1` [Example 94, piperazine-1-carboxylic acid {2-[6-acryloylamino-4-(4-bromo-2-fluoro-phenylamino)-quinazolin-7-yloxy]-ethyl}-amide], the IC50 in experiment [1] (Homo sapiens, 96 h) turned out to be 694 nM; in experiment [2] (Homo sapiens, 72 h) it was 2320 nM; in experiment [3] (Homo sapiens, SK-BR-3, 72 h), 2560 nM; in experiment [4] it was 698 nM; in experiment [5] (Homo sapiens, A-431, 72 h) it was 739 nM; in experiment [6] it was 698 nM.
On to `C=CC(=O)Nc1cc2c(Nc3ccc(Br)c(F)c3F)ncnc2cc1OCCNC(=O)CCN(CC)CC` [Example 125, N-{4-(4-bromo-2,3-difluoro-phenylamino)-7-[2-(3-diethylamino-propionylamino)-ethoxy]-quinazolin-6-yl}-acrylamide], for which the IC50 was found to be 657 nM in experiment [1] (Homo sapiens, 96 h); 2980 nM in experiment [2] (Homo sapiens, 72 h); 242 nM in experiment [3] (Homo sapiens, SK-BR-3, 72 h); 19 nM in experiment [4]; 22 nM in experiment [5] (Homo sapiens, A-431, 72 h); 218 nM in experiment [6].
Take `C=CC(=O)Nc1cc2c(Nc3ccc(Br)c(Cl)c3F)ncnc2cc1OCCNC(=O)CN(C)C` [Example 143, N-{4-(4-bromo-3-chloro-2-fluoro-phenylamino)-7-[2-(2-dimethylamino-acetylamino)-ethoxy]-quinazolin-6-yl}-acrylamide]: the IC50 was 239 nM in experiment [1] (Homo sapiens, 96 h); 2810 nM in experiment [2] (Homo sapiens, 72 h); 7 nM in experiment [3] (Homo sapiens, SK-BR-3, 72 h); 19 nM in experiment [4]; 11 nM in experiment [5] (Homo sapiens, A-431, 72 h); 87 nM in experiment [6].
Consider `C=CC(=O)Nc1cc2c(Nc3ccc(Br)cc3F)ncnc2cc1OCCNC(=O)C1CCCN1` (stereo not drawn) [Example 97, pyrrolidine-2-carboxylic acid {2-[6-acryloylamino-4-(4-bromo-2-fluoro-phenylamino)-quinazolin-7-yloxy]-ethyl}-amide], for which the IC50 was 867 nM in experiment [1] (Homo sapiens, 96 h); 2740 nM in experiment [2] (Homo sapiens, 72 h); 10000 nM in experiment [3] (Homo sapiens, SK-BR-3, 72 h); 1950 nM in experiment [4]; 2380 nM in experiment [5] (Homo sapiens, A-431, 72 h); 658 nM in experiment [6].
Take `C=CC(=O)Nc1cc2c(Nc3ccc(Br)c(Cl)c3F)ncnc2cc1OCCNC(=O)NCCC` [Example 169, N-{4-(4-bromo-3-chloro-2-fluoro-phenylamino)-7-[2-(3-propyl-ureido)-ethoxy]-quinazolin-6-yl}-acrylamide]: the IC50 in experiment [1] (Homo sapiens, 96 h) came to 233 nM; in experiment [2] (Homo sapiens, 72 h) it was 9100 nM; in experiment [3] (Homo sapiens, SK-BR-3, 72 h) it was 67 nM; in experiment [4] it was 26 nM; in experiment [5] (Homo sapiens, A-431, 72 h), 35 nM; in experiment [6], 128 nM.
For the molecule “N-{2-[6-acryloylamino-4-(4-bromo-2,3-difluoro-phenylamino)-quinazolin-7-oxy]-ethyl}-4-dimethylamino-butylamide [Example 127]”, the IC50 turned out to be 676 nM in experiment [1] (96 hours); 6510 nM in experiment [2] (72 hours); 1020 nM in experiment [3] (72 hours); 568 nM in experiment [4]; 698 nM in experiment [5] (72 hours); 958 nM in experiment [6].
